Laboratory results from PubChem BioAssay AID2060899 (Molecular Pharmacology Branch, DTP, NCI, 2025).

Test system: 565726-208-R1-J5-PDC complex spheroids, growth inhibition
Experiment: Anticancer human tumor 565726-208-R1-J5-PDC patient-derived pancreatic adenocarcinoma cell line growth inhibition [RAS]
Conditions: for IC50: curve of first compound; for viability, T/C: stronger effect = lower value
Method in brief: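 Multi-cell-type spheroids: tumor cells plus HUVEC endothelial cells and mesenchymal stem cells. RAS-pathway inhibitors were combined with targeted agents, each dosed in half-log steps down from clinical Cmax, or from 10 microM when Cmax was unknown.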
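Note: spheroids exposed to compounds for seven days before readout.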
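Throughout, for viability, T/C: 100% = DMSO vehicle control viability.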

CC(Nc1ccc2c(c1)OCCn1cc(N3C(=O)OCC3C(F)F)nc1-2)C(N)=O (centres undefined) + CCn1c(-c2cc(N3CCN(C)CC3)cnc2C(C)OC)c2c3cc(ccc31)-c1csc(n1)CC(NC(=O)C1CC1C)C(=O)N1CCCC(N1)C(=O)OCC(C)(C)C2
IC50 (second compound 0.000949 µM): 316 nM
IC50 (second compound 0.003 µM): < 31.6 nM
IC50 (second compound 0.00949 µM): < 31.6 nM
IC50 (second compound 0.03 µM): < 31.6 nM
IC50 (second compound 0.0949 µM): < 31.6 nM
IC50 (second compound 0.3 µM): < 31.6 nM
viability, T/C (second compound 0.000949 µM, first compound 0.0316 µM): 62.7%
viability, T/C (second compound 0.000949 µM, first compound 0.1 µM): 49%
viability, T/C (second compound 0.000949 µM, first compound 0.316 µM): 50.6%
viability, T/C (second compound 0.000949 µM, first compound 1 µM): 47.7%
viability, T/C (second compound 0.000949 µM, first compound 3.16 µM): 40.2%
viability, T/C (second compound 0.000949 µM, first compound 10 µM): 32.9%
viability, T/C (second compound 0.003 µM, first compound 0.0316 µM): 49.7%
viability, T/C (second compound 0.003 µM, first compound 0.1 µM): 48.4%
viability, T/C (second compound 0.003 µM, first compound 0.316 µM): 39.7%
viability, T/C (second compound 0.003 µM, first compound 1 µM): 37.2%
viability, T/C (second compound 0.003 µM, first compound 3.16 µM): 36.3%
viability, T/C (second compound 0.003 µM, first compound 10 µM): 24.2%
viability, T/C (second compound 0.00949 µM, first compound 0.0316 µM): 44.5%
viability, T/C (second compound 0.00949 µM, first compound 0.1 µM): 37.4%
viability, T/C (second compound 0.00949 µM, first compound 0.316 µM): 32.9%
viability, T/C (second compound 0.00949 µM, first compound 1 µM): 29.6%
viability, T/C (second compound 0.00949 µM, first compound 3.16 µM): 26.4%
viability, T/C (second compound 0.00949 µM, first compound 10 µM): 19.5%
viability, T/C (second compound 0.03 µM, first compound 0.0316 µM): 31.9%
viability, T/C (second compound 0.03 µM, first compound 0.1 µM): 26.9%
viability, T/C (second compound 0.03 µM, first compound 0.316 µM): 26.8%
viability, T/C (second compound 0.03 µM, first compound 1 µM): 24.9%
viability, T/C (second compound 0.03 µM, first compound 3.16 µM): 22.4%
viability, T/C (second compound 0.03 µM, first compound 10 µM): 13.3%
viability, T/C (second compound 0.0949 µM, first compound 0.0316 µM): 24.8%
viability, T/C (second compound 0.0949 µM, first compound 0.1 µM): 24.6%
viability, T/C (second compound 0.0949 µM, first compound 0.316 µM): 23.1%
viability, T/C (second compound 0.0949 µM, first compound 1 µM): 18.5%
viability, T/C (second compound 0.0949 µM, first compound 3.16 µM): 18.4%
viability, T/C (second compound 0.0949 µM, first compound 10 µM): 12.1%
viability, T/C (second compound 0.3 µM, first compound 0.0316 µM): 22.6%
viability, T/C (second compound 0.3 µM, first compound 0.1 µM): 20.9%
viability, T/C (second compound 0.3 µM, first compound 0.316 µM): 20.1%
viability, T/C (second compound 0.3 µM, first compound 1 µM): 19.3%
viability, T/C (second compound 0.3 µM, first compound 3.16 µM): 15.6%
viability, T/C (second compound 0.3 µM, first compound 10 µM): 10.7%

CCN1CCN(Cc2ccc(Nc3ncc(F)c(-c4cc(F)c5nc(C)n(C(C)C)c5c4)n3)nc2)CC1 + C#Cc1c(F)ccc2cc(O)cc(-c3ncc4c(N5CC6CCC(C5)N6)nc(OCC56CCCN5CC(F)C6)nc4c3F)c12
IC50 (second compound 0.0316 µM): > 1000 nM
IC50 (second compound 0.1 µM): > 1000 nM
IC50 (second compound 0.316 µM): > 1000 nM
IC50 (second compound 1 µM): > 1000 nM
IC50 (second compound 3.16 µM): 92.8 nM
IC50 (second compound 10 µM): 61.2 nM
viability, T/C (second compound 0.0316 µM, first compound 0.00316 µM): 83.6%
viability, T/C (second compound 0.0316 µM, first compound 0.01 µM): 130%
viability, T/C (second compound 0.0316 µM, first compound 0.0316 µM): 74.6%
viability, T/C (second compound 0.0316 µM, first compound 0.1 µM): 79.2%
viability, T/C (second compound 0.0316 µM, first compound 0.316 µM): 86.8%
viability, T/C (second compound 0.0316 µM, first compound 1 µM): 89.1%
viability, T/C (second compound 0.1 µM, first compound 0.00316 µM): 109%
viability, T/C (second compound 0.1 µM, first compound 0.01 µM): 122%
viability, T/C (second compound 0.1 µM, first compound 0.0316 µM): 75.6%
viability, T/C (second compound 0.1 µM, first compound 0.1 µM): 66.9%
viability, T/C (second compound 0.1 µM, first compound 0.316 µM): 76.5%
viability, T/C (second compound 0.1 µM, first compound 1 µM): 101%
viability, T/C (second compound 0.316 µM, first compound 0.00316 µM): 116%
viability, T/C (second compound 0.316 µM, first compound 0.01 µM): 143%
viability, T/C (second compound 0.316 µM, first compound 0.0316 µM): 67.8%
viability, T/C (second compound 0.316 µM, first compound 0.1 µM): 64.1%
viability, T/C (second compound 0.316 µM, first compound 0.316 µM): 77.5%
viability, T/C (second compound 0.316 µM, first compound 1 µM): 82.4%
viability, T/C (second compound 1 µM, first compound 0.00316 µM): 127%
viability, T/C (second compound 1 µM, first compound 0.01 µM): 115%
viability, T/C (second compound 1 µM, first compound 0.0316 µM): 87%
viability, T/C (second compound 1 µM, first compound 0.1 µM): 61.2%
viability, T/C (second compound 1 µM, first compound 0.316 µM): 46.8%
viability, T/C (second compound 1 µM, first compound 1 µM): 72.5%
viability, T/C (second compound 3.16 µM, first compound 0.00316 µM): 99.1%
viability, T/C (second compound 3.16 µM, first compound 0.01 µM): 105%
viability, T/C (second compound 3.16 µM, first compound 0.0316 µM): 57.6%
viability, T/C (second compound 3.16 µM, first compound 0.1 µM): 56.6%
viability, T/C (second compound 3.16 µM, first compound 0.316 µM): 46.2%
viability, T/C (second compound 3.16 µM, first compound 1 µM): 45.6%
viability, T/C (second compound 10 µM, first compound 0.00316 µM): 87.7%
viability, T/C (second compound 10 µM, first compound 0.01 µM): 78.5%
viability, T/C (second compound 10 µM, first compound 0.0316 µM): 56.9%
viability, T/C (second compound 10 µM, first compound 0.1 µM): 41.4%
viability, T/C (second compound 10 µM, first compound 0.316 µM): 44.3%
viability, T/C (second compound 10 µM, first compound 1 µM): 28.9%
